In one test the target is CDK12/CycK (Homo sapiens, UniProt Q9NYV4). Description: CDK12/CycK high ATP kinase assay (TR-FRET, 2 mM ATP). It is filed as biochemical. As to conditions: 2 mM ATP (high ATP); median; read-out: CDK12/CyclinK, 2 mM ATP (high ATP), IC50-[mol/l] (median). The method in brief: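 Read-out is TR-FRET (Eu-anti-rabbit IgG, anti-phospho-c-Myc Ser62 antibody, streptavidin-XL665) after EDTA stop. Reaction ran 60 min at 22 °C using 1 µM biotin-peptide and high ATP (2 mM) with roughly 0.75 nM recombinant CDK12/CycK, after 15 min compound pre-binding; normalised emission ratios yield IC50.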
Sequence of CDK12/CycK (Q9NYV4 with tags, fused parts or gaps): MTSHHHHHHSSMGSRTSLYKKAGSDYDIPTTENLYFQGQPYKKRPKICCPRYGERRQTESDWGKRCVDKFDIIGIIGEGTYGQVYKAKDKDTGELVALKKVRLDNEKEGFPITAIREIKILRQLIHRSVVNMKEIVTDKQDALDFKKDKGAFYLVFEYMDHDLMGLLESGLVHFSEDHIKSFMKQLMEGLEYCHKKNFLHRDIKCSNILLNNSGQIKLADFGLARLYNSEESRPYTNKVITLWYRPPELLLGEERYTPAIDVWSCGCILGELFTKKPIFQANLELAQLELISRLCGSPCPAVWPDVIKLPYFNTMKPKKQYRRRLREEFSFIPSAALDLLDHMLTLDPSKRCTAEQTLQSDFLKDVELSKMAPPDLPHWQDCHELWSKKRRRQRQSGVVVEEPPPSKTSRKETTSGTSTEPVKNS
Sequence of CDK12/CycK (O75909 1-300 partner limits assumed): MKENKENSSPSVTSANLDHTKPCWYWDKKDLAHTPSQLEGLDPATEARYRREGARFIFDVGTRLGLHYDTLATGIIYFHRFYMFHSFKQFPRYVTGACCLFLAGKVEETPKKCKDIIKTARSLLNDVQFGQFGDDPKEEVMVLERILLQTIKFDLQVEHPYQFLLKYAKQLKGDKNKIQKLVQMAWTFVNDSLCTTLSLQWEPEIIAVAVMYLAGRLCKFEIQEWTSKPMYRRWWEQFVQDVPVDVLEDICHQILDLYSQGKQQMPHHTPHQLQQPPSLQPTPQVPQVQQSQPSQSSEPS
(In general: Time-resolved FRET reads energy transfer from a long-lived donor to a nearby acceptor.)

Test [1] relates to CAL-120, human breast adenocarcinoma cells. Briefly: Proliferation assay CAL-120 (crystal violet, 4 days). Conditions: Homo sapiens, CAL-120, 96 h, CAL-120 cells, median, read-out: Prolif-CAL-120, IC50-[mol/l] (median). Type of test: cell-based. The method in brief: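 IC50 from a 4-parameter fit of crystal violet absorbance (595 nm), scaled between the day-of-dosing plate (0%) and vehicle cells (100%). MDA-MB-231 or CAL-120 cells were treated for 4 days with 0.01–10 micromol/L compound in 0.1% DMSO after 24 h attachment.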

Test [2] has as its target T1, CYCLIN K (nuclear staining in CAL-120 cells) (Homo sapiens, UniProt O75909).
T1 construct: endogenous in cells; host or cells: CAL-120 human breast cancer cells (DSMZ ACC 459)
Description: CYCLIN K nuclear protein level: immunofluorescence high content analysis (CAL-120). It is filed as cell-based. Conditions: 24 h, 50% reduction of nuclear CCNK staining intensity, median, read-out: CYCLIN K degradation IF, DC50-[mol/l] (median). In short, it runs like this: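 Readout is automated confocal image analysis of nuclear cyclin K immunofluorescence (Hoechst nuclei) after PFA fixation. Cells were CAL-120, exposed to compound dose-response 24 h at 37 °C; values are DC50 for halving nuclear CCNK signal relative to DMSO and control wells.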

T1 sequence (O75909 whole entry): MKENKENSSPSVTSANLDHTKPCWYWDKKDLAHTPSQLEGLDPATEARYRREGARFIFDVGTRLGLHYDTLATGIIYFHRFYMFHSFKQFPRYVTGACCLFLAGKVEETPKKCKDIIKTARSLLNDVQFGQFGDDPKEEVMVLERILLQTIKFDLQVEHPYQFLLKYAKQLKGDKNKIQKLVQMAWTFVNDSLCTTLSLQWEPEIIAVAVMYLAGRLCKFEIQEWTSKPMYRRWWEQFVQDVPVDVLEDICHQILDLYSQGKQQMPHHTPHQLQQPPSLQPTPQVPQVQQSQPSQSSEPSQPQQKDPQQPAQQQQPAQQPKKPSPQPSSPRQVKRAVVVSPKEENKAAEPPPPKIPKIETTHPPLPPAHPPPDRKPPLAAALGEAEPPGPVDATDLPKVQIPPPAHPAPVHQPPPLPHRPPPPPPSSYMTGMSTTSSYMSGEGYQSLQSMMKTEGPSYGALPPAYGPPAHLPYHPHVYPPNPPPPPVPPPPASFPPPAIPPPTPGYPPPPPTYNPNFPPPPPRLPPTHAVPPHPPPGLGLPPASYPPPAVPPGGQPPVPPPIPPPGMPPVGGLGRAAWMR
T1 sequence (Q9NYV4 whole entry partner): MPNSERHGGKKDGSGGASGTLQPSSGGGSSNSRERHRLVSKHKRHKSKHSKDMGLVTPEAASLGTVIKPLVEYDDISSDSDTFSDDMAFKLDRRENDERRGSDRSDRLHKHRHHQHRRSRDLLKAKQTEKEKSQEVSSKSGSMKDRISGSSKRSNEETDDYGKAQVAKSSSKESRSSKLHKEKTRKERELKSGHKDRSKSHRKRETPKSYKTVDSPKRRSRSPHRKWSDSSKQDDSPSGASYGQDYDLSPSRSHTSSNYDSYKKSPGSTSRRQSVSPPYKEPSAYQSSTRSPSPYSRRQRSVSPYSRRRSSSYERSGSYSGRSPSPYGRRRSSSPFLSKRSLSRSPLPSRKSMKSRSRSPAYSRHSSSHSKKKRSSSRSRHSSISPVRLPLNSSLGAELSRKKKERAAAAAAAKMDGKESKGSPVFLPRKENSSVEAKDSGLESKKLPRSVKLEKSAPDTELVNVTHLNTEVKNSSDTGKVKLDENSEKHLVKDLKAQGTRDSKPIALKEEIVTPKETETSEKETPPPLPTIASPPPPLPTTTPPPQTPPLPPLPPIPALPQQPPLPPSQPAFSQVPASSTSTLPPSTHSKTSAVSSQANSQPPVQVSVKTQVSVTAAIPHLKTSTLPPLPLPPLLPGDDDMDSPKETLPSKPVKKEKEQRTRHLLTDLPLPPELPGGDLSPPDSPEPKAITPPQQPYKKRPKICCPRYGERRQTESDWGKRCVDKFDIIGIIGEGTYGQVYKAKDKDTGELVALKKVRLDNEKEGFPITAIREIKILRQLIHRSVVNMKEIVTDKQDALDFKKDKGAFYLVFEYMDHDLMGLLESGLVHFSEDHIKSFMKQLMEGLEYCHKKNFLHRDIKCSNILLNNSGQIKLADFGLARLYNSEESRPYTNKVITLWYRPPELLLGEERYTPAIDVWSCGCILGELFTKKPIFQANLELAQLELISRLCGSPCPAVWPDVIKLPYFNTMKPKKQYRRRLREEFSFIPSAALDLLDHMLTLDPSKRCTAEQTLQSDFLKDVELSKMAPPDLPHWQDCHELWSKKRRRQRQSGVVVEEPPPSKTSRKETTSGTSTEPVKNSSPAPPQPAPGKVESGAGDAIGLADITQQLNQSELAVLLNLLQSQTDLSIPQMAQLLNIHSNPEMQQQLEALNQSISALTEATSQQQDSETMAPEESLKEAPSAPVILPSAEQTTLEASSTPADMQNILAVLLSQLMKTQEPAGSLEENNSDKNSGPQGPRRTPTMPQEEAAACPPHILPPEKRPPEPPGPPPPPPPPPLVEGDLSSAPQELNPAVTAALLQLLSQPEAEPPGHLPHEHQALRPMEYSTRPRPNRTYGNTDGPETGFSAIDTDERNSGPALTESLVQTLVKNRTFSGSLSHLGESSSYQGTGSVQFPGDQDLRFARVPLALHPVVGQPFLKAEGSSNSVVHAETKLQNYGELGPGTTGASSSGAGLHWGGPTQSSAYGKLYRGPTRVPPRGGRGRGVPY

Take `Fc1cccc(-c2nnc(CNc3nc(N4CCNCC4)nc4c(Br)cnn34)[nH]2)c1` [Example 152, 8-bromo-N-{[5-(3-fluorophenyl)-4H-1,2,4-triazol-3-yl]methyl}-2-(piperazin-1-yl)pyrazolo[1,5-a][1,3,5]triazin-4-amine]: the IC50 at CDK12/CycK is 2990 nM; in test [1], 3.86 nM. In test [2], the DC50 was found to be 1.11 nM.

Regarding `Fc1cccc2[nH]c(CNc3nc(N4CCOCC4)nc4c(Br)cnn34)nc12` [Example 97, 8-bromo-N-[(4-fluoro-1H-benzimidazol-2-yl)methyl]-2-(morpholin-4-yl)pyrazolo[1,5-a][1,3,5]triazin-4-amine], the IC50 on CDK12/CycK came to 788 nM; in test [1], 5.17 nM. Further, in test [2], the DC50 was 0.467 nM.

Regarding `Cc1cccc2[nH]c(CNc3nc(N4CCOCC4)nc4c(Br)cnn34)nc12` [Example 150, 8-bromo-N-[(4-methyl-1H-benzimidazol-2-yl)methyl]-2-(morpholin-4-yl)pyrazolo[1,5-a][1,3,5]triazin-4-amine], the IC50 is 2660 nM at CDK12/CycK and 18.3 nM in test [1]. Moreover, in test [2], the DC50 was determined as 1.48 nM.

As for `Fc1ccc(-c2nnc(CNc3nc(N4CCOCC4)nc4c(Br)cnn34)[nH]2)cc1F` [Example 99, 8-bromo-N-{[5-(3,4-difluorophenyl)-4H-1,2,4-triazol-3-yl]methyl}-2-(morpholin-4-yl)pyrazolo[1,5-a][1,3,5]triazin-4-amine], the IC50 worked out at 1540 nM at CDK12/CycK and 54.7 nM in test [1]. In addition, in test [2], the DC50 was 3.05 nM.

As to `c1cncc(-c2cnn3c(NCc4nc5ccccc5[nH]4)nc(N4CCOCC4)nc23)c1` [Example 108, N-[(1H-benzimidazol-2-yl)methyl]-2-(morpholin-4-yl)-8-(pyridin-3-yl)pyrazolo[1,5-a][1,3,5]triazin-4-amine], the IC50 at CDK12/CycK is more than 20000 nM; in test [1], 89.6 nM. For the same compound, the DC50 in test [2] came to 2.91 nM.

Take `CN1CCN(c2nc(NCc3nc4c(F)cccc4[nH]3)n3ncc(Br)c3n2)CC1` [Example 126, 8-bromo-N-[(4-fluoro-1H-benzimidazol-2-yl)methyl]-2-(4-methylpiperazin-1-yl)pyrazolo[1,5-a][1,3,5]triazin-4-amine]: the IC50 on CDK12/CycK came out at 6830 nM; in test [1] it was 11 nM. In addition, the DC50 in test [2] came out at 0.142 nM.

As for `CN1CCN(c2nc(NCc3nc4cc(Cl)ccc4[nH]3)n3ncc(Br)c3n2)CC1` [Example 163, 8-bromo-N-[(5-chloro-1H-benzimidazol-2-yl)methyl]-2-(4-methylpiperazin-1-yl)pyrazolo[1,5-a][1,3,5]triazin-4-amine], the IC50 on CDK12/CycK was more than 5710 nM; in test [1], 1.05 nM. The DC50 in test [2] amounted to 0.279 nM.

In the case of `CCN1CCN(c2nc(NCc3nc4ccccc4[nH]3)n3ncc(Br)c3n2)CC1` [Example 137, N-[(1H-benzimidazol-2-yl)methyl]-8-bromo-2-(4-ethylpiperazin-1-yl)pyrazolo[1,5-a][1,3,5]triazin-4-amine], the IC50 was found to be 13000 nM at CDK12/CycK and 110 nM in test [1]. Moreover, the DC50 in test [2] came to 4.68 nM.

In the case of `CN1CCN(c2nc(NCc3nc4c(F)cccc4[nH]3)n3ncc(C4CC4)c3n2)CC1` [Example 165, 8-cyclopropyl-N-[(4-fluoro-1H-benzimidazol-2-yl)methyl]-2-(4-methylpiperazin-1-yl)pyrazolo[1,5-a][1,3,5]triazin-4-amine], the IC50 on CDK12/CycK came to 10200 nM; in test [1], 4.16 nM. In addition, the DC50 in test [2] stood at 0.155 nM.

With `CCC1COCCN1c1nc(NCc2nc3ccccc3[nH]2)n2ncc(Br)c2n1` (stereo not drawn) [Example 116, N-(1H-benzimidazol-2-ylmethyl)-8-bromo-2-(3-ethylmorpholin-4-yl)pyrazolo[1,5-a][1,3,5]triazin-4-amine], the IC50 on CDK12/CycK was found to be 6730 nM; in test [1], 47 nM. Further, the DC50 in test [2] came to 4.92 nM.

Consider `C[C@@H]1CN(c2nc(NCc3nc4ccccc4[nH]3)n3ncc(Br)c3n2)C[C@H](C)N1C` [Example 129, N-(1H-benzimidazol-2-ylmethyl)-8-bromo-2-[(3R,5S)-3,4,5-trimethylpiperazin-1-yl]pyrazolo[1,5-a][1,3,5]triazin-4-amine], for which the IC50 at CDK12/CycK is more than 18200 nM; in test [1] it was 125 nM. In test [2], the DC50 worked out at 3.39 nM.

As for `C[C@@H]1CN(c2nc(NCc3nc4cc(F)ccc4[nH]3)n3ncc(Br)c3n2)C[C@H](C)O1` [Example 110, 8-bromo-2-[(2R,6S)-2,6-dimethylmorpholin-4-yl]-N-[(5-fluoro-1H-benzimidazol-2-yl)methyl]pyrazolo[1,5-a][1,3,5]triazin-4-amine], the IC50 amounted to 405 nM at CDK12/CycK and 5.03 nM in test [1]. In test [2], the DC50 came out at 0.354 nM.

As for `Fc1cc(F)cc(-c2nnc(CNc3nc(N4CCOCC4)nc4c(Br)cnn34)[nH]2)c1` [Example 105, 8-bromo-N-{[5-(3,5-difluorophenyl)-4H-1,2,4-triazol-3-yl]methyl}-2-(morpholin-4-yl)pyrazolo[1,5-a][1,3,5]triazin-4-amine], the IC50 was found to be 1070 nM at CDK12/CycK and 7.36 nM in test [1]. In addition, the DC50 in test [2] came out at 0.676 nM.

For the compound `CN1CCN(c2nc(NCc3nc4cc(F)ccc4[nH]3)n3ncc(Br)c3n2)CC1` [Example 134, 8-bromo-N-[(5-fluoro-1H-benzimidazol-2-yl)methyl]-2-(4-methylpiperazin-1-yl)pyrazolo[1,5-a][1,3,5]triazin-4-amine], the IC50 is more than 17700 nM at CDK12/CycK and 11.6 nM in test [1]. For the same compound, the DC50 in test [2] was 0.172 nM.

(Values after patent US20230117034A1, “PYRAZOLOTRIAZINES” (Bayer Aktiengesellschaft, priority 2019, published 2023).)
